From ChEMBL document CHEMBL5390316, “Enniatin A Analogues as Novel Hsp90 Inhibitors that Modulate Triple-Negative Breast Cancer” (ACS Med Chem Lett, 2023)
Activity calls are given as the source filed them. The calls are words filed in the database; no cut-off is given here.

Experiments:
[1] = system: Hs-578T; assay: Antiproliferative activity against human Hs-578T cells assessed as reduction in cell viability incubated for 48 hrs by MTT assay; format: functional, cell-based
[2] = molecular target: Heat shock protein HSP90 (Homo sapiens) (UniProt P07900+P08238); assay: Inhibition of HSP90 in human Hs-578T cells assessed as degradation of CDK4 at 5 uM incubated for 24 hrs by Western blot analysis; format: cell-based
[3] = system: Hs-578T; assay: Induction of heat shock response in human Hs-578T cells assessed as change in Hsp40 level at 5 uM incubated for 24 hrs by Western blot analysis; format: functional, cell-based
[4] = system: Hs-578T; assay: Induction of heat shock response in human Hs-578T cells assessed as change in Hsp70 level at 5 uM incubated for 24 hrs by Western blot analysis; format: functional, cell-based
[5] = system: EO771; assay: Inhibition of HSP90 in mouse EO771 cells assessed as change in CDK4 level at 7.5 uM incubated for 24 hrs by Western blot analysis; format: cell-based
[6] = system: EO771; assay: Inhibition of HSP90 in mouse EO771 cells assessed as change in ILK level at 7.5 uM incubated for 24 hrs by Western blot analysis; format: cell-based
[7] = system: E0771; assay: In vivo inhibition of HSP90 in mouse E0771 cells implanted in C57BL/6 mouse assessed as change in CDK4 at 10 mg/kg, ip administered every 48 hrs for 3 weeks by Western blot analysis; format: functional, organism-based
[8] = system: 4T1; assay: Inhibition of HSP90 in mouse 4T1 cells assessed as reduction in ILK level at 7.5 uM incubated for 24 hrs by Western blot analysis; format: cell-based
[9] = system: EO771; assay: Antiproliferative activity against mouse E0771 cells implanted in C57BL/6 mouse assessed as inhibition of tumor volume at 10 mg/kg, ip administered every 48 hrs for 3 weeks; format: functional, organism-based
[10] = system: 4T1; assay: Inhibition of HSP90 in mouse 4T1 cells assessed as reduction in CDK4 level at 7.5 uM incubated for 24 hrs by Western blot analysis; format: cell-based
[11] = system: E0771; assay: In vivo inhibition of HSP90 in mouse E0771 cells implanted in C57BL/6 mouse assessed as change in ILK at 10 mg/kg, ip administered every 48 hrs for 3 weeks by Western blot analysis; format: functional, organism-based
[12] = system: 4T1; assay: Induction of heat shock response in mouse 4T1 cells assessed as change in Hsp70 level at 7.5 uM incubated for 24 hrs by Western blot analysis; format: functional, cell-based
[13] = system: EO771; assay: Induction of heat shock response in mouse EO771 cells assessed as change in Hsp70 level at 7.5 uM incubated for 24 hrs by Western blot analysis; format: functional, cell-based
[14] = system: E0771; assay: In vivo inhibition of HSP90 in mouse E0771 cells implanted in C57BL/6 mouse assessed as change in p-Akt/Akt ratio at 10 mg/kg, ip administered every 48 hrs for 3 weeks by Western blot analysis; format: functional, organism-based
[15] = system: E0771; assay: In vivo inhibition of HSP90 in mouse E0771 cells implanted in C57BL/6 mouse at 10 mg/kg, ip administered every 48 hrs for 3 weeks by Western blot analysis; format: functional, organism-based
[16] = system: E0771; assay: In vivo induction of heat shock response in mouse E0771 cells implanted in C57BL/6 mouse assessed as increased Hsp70 level at 10 mg/kg, ip administered every 48 hrs for 3 weeks by Western blot analysis; format: functional, organism-based
[17] = system: E0771; assay: In vivo induction of heat shock response in mouse E0771 cells implanted in C57BL/6 mouse assessed as increased Hsp40 level at 10 mg/kg, ip administered every 48 hrs for 3 weeks by Western blot analysis; format: functional, organism-based
[18] = system: Hs-578T; assay: Induction of heat shock response in human Hs-578T cells assessed as reduction in Hsp40 level at 1 uM incubated for 24 hrs by Western blot analysis; format: functional, cell-based
[19] = system: Hs-578T; assay: Induction of heat shock response in human Hs-578T cells assessed as reduction in Hsp70 level at 1 uM incubated for 24 hrs by Western blot analysis; format: functional, cell-based

Work on `CC[C@H](C)[C@H]1C(=O)O[C@H](C(C)C)C(=O)N(C)[C@@H]([C@@H](C)CC)C(=O)O[C@H](C(C)C)C(=O)N(C)[C@@H]([C@@H](C)CC)C(=O)O[C@H](CCc2ccccc2)C(=O)N1C` yielded an IC50 [1] of 8.1 µM.
For `CC[C@H](C)[C@H]1C(=O)O[C@H](C(C)C)C(=O)N(C)[C@@H](Cc2ccccc2)C(=O)O[C@H](C(C)C)C(=O)N(C)[C@@H]([C@@H](C)CC)C(=O)O[C@H](C(C)C)C(=O)N1C`, the IC50 [1] was 8 µM, the inhibition [2] was “Active” and the Activity [3] was “inactive”. The Activity [4] was “inactive”.
With `CC[C@H](C)[C@H]1C(=O)O[C@H](C(C)C)C(=O)N(C)[C@@H]([C@@H](C)CC)C(=O)O[C@H](C(C)C)C(=O)N(C)CC(=O)O[C@H](C(C)C)C(=O)N1C` the IC50 [1] was 16.7 µM.
With `CC[C@H](C)[C@H]1C(=O)O[C@H](C(C)C)C(=O)N(C)[C@@H](C)C(=O)O[C@H](C(C)C)C(=O)N(C)[C@@H]([C@@H](C)CC)C(=O)O[C@H](C(C)C)C(=O)N1C` the IC50 [1] was 16.2 µM.
With `CC[C@H](C)[C@H]1C(=O)O[C@H](C(C)C)C(=O)N(C)[C@@H]([C@@H](C)CC)C(=O)O[C@H](C(C)C)C(=O)N(C)[C@@H]([C@@H](C)CC)C(=O)O[C@H](C(C)C)C(=O)N1C` the inhibition [5] was “inactive”, the IC50 [1] was 7.39 µM and the inhibition [2] was “Active”. For the same compound, the inhibition [6] was “inactive”, the inhibition [7] was “Active” and the inhibition [8] was “Active”. The Activity [9] was “Active”, the inhibition [10] was “Active” and the Activity [3] was “inactive”. For the same compound, the Activity [4] was “inactive”, the inhibition [11] was “Active” and the Activity [12] was “inactive”. For the same compound, the Activity [13] was “inactive”, the inhibition [14] was “Active” and the inhibition [15] was “inactive”.
Work on `CC[C@H](C)[C@H]1C(=O)O[C@H](C(C)C)C(=O)N(C)[C@@H]([C@@H](C)CC)C(=O)O[C@H](C(C)C)C(=O)N(C)[C@@H]([C@@H](C)CC)C(=O)O[C@H](C)C(=O)N1C` yielded an IC50 [1] of 13 µM.
In the case of `CC[C@H](C)[C@H]1C(=O)O[C@H](C(C)C)C(=O)N(C)[C@@H]([C@@H](C)CC)C(=O)O[C@H](C(C)C)C(=O)N(C)[C@@H]([C@@H](C)CC)C(=O)O[C@H](Cc2ccccc2)C(=O)N1C`, the inhibition [5] is reported as “inactive”, the IC50 [1] is reported as 4.36 µM and the inhibition [2] is reported as “Active”. The inhibition [6] was “inactive”, the Activity [16] was “Active” and the inhibition [7] was “Active”. The inhibition [8] was “Active”, the Activity [9] was “Active” and the inhibition [10] was “Active”. For the same compound, the Activity [3] was “inactive”, the Activity [4] was “inactive” and the Activity [17] was “Active”. The inhibition [11] was “Active”, the Activity [12] was “inactive” and the Activity [13] was “inactive”. For the same compound, the inhibition [14] was “Active” and the inhibition [15] was “inactive”.
With `CC[C@H](C)[C@H]1C(=O)O[C@H](C(C)C)C(=O)N(C)[C@@H]([C@@H](C)CC)C(=O)O[C@H](C(C)C)C(=O)N(C)[C@@H]([C@@H](C)CC)C(=O)O[C@H](Cc2ccc(C)cc2)C(=O)N1C` the IC50 [1] was 8.34 µM.
`C=CCNC1=C2C[C@@H](C)C[C@H](OC)[C@H](O)[C@@H](C)/C=C(\C)[C@H](OC(N)=O)[C@@H](OC)/C=C\C=C(/C)C(=O)NC(=CC1=O)C2=O` was tested, and the Activity [18] was “Active” and the Activity [19] was “Active”.
Compound `CC[C@H](C)[C@H]1C(=O)O[C@H](C(C)C)C(=O)N(C)[C@@H]([C@@H](C)CC)C(=O)O[C@H](C(C)C)C(=O)N(C)[C@@H]([C@@H](C)CC)C(=O)O[C@H](Cc2ccc3ccccc3c2)C(=O)N1C` has an IC50 [1] of 8 µM.
Work on `CC[C@H](C)[C@H]1C(=O)O[C@H](C(C)C)C(=O)N(C)[C@@H]([C@@H](C)CC)C(=O)O[C@H](C(C)C)C(=O)N(C)[C@@H]([C@@H](C)CC)C(=O)OCC(=O)N1C` yielded an IC50 [1] of 16 µM.
